Test [1] deals with Tyrosine-protein kinase BTK (Homo sapiens) (UniProt Q06187). The test can be described thus: Inhibition of human full length BTK expressed in baculovirus assessed as substrate phosphorylation using fluorescence-labelled peptides as substrate at 8 uM after 90 mins by microfluidic peptide phosphorylation assay.
Test [2] addresses T1, Mitogen-activated protein kinase 13 (Homo sapiens) (UniProt O15264).
T1 sequence (whole entry): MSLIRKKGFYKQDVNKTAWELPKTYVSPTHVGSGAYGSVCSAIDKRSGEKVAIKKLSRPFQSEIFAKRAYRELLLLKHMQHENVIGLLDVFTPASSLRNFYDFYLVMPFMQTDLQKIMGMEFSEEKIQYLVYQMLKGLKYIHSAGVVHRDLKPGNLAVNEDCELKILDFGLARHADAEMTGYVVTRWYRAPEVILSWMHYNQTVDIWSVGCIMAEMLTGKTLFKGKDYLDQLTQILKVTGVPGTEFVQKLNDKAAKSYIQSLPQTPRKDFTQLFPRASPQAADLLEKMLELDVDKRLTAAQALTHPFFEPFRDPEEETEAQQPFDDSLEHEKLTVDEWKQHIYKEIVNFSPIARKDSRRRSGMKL
Kind of test: Inhibition of human full length p38 delta expressed in Escherichia coli cell assessed as substrate phosphorylation using fluorescence-labelled peptides as substrate at 420 uM after 90 mins by microfluidic peptide phosphorylation assay.

The target of test [3] is T2, Serine/threonine-protein kinase BRSK2 (Homo sapiens) (UniProt Q8IWQ3).
T2 sequence (whole entry): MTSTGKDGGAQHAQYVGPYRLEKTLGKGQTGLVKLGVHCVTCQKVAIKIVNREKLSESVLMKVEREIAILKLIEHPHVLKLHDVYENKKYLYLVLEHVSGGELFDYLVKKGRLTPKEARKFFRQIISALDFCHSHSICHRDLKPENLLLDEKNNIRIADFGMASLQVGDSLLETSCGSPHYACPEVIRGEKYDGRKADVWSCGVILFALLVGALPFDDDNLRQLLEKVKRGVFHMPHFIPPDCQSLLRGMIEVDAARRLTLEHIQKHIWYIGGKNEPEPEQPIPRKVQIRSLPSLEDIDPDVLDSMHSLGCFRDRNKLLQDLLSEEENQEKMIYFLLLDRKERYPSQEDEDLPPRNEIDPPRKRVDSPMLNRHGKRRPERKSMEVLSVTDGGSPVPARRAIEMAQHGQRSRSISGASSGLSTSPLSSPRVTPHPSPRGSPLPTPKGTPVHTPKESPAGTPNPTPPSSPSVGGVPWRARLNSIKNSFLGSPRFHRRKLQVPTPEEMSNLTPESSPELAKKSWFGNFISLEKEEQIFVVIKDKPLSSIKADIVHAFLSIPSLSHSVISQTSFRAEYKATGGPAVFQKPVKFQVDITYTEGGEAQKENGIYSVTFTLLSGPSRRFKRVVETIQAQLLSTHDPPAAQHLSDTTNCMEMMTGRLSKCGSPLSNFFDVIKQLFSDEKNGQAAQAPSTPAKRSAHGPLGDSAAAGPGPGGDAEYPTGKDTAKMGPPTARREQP
Kind of test: Inhibition of human truncated BRSK2 expressed in baculovirus assessed as substrate phosphorylation using fluorescence-labelled peptides as substrate at 0.1 uM after 90 mins by microfluidic peptide phosphorylation assay.

Test [4] concerns the target Calcium/calmodulin-dependent protein kinase type II subunit delta (Homo sapiens) (UniProt Q13557). The test can be described thus: Inhibition of human full length CAMK2D expressed in baculovirus assessed as substrate phosphorylation using fluorescence-labelled peptides as substrate at 0.06 uM after 90 mins by microfluidic peptide phosphorylation assay.
For test [5], the target named is Proto-oncogene tyrosine-protein kinase Src (Homo sapiens) (UniProt P12931). Kind of test: Inhibition of human full length SRC expressed in baculovirus assessed as substrate phosphorylation using fluorescence-labelled peptides as substrate at 0.2 uM after 90 mins by microfluidic peptide phosphorylation assay.
Proto-oncogene tyrosine-protein kinase Src (Homo sapiens), sequence (P12931 2-536 limits assumed): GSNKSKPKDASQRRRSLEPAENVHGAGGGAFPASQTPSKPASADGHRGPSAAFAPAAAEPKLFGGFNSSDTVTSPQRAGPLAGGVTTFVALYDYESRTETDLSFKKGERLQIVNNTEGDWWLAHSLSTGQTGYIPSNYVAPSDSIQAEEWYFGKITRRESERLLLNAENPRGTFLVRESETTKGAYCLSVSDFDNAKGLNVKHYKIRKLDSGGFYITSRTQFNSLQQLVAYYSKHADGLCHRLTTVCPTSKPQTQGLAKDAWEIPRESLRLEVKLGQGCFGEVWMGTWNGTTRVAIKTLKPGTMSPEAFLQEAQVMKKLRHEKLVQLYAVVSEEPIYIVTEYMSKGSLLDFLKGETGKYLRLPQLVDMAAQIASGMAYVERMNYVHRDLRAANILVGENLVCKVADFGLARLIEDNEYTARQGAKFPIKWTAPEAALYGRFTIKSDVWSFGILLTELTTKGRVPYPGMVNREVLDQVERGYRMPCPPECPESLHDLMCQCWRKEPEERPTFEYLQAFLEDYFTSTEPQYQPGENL
For test [6], the target named is Insulin-like growth factor 1 receptor (Homo sapiens) (UniProt P08069). Kind of test: Inhibition of human IGF1R catalytic domain expressed in baculovirus assessed as substrate phosphorylation using fluorescence-labelled peptides as substrate at 0.2 uM after 90 mins by microfluidic peptide phosphorylation assay.
The target in test [7] is Calcium/calmodulin-dependent protein kinase type II subunit gamma (Homo sapiens) (UniProt Q13555). The test can be described thus: Inhibition of human CAMK2 gamma catalytic domain expressed in baculovirus assessed as substrate phosphorylation using fluorescence-labelled peptides as substrate at 9 uM after 90 mins by microfluidic peptide phosphorylation assay.
Calcium/calmodulin-dependent protein kinase type II subunit gamma (Homo sapiens), sequence (Q13555 whole entry, the tested form may be a part): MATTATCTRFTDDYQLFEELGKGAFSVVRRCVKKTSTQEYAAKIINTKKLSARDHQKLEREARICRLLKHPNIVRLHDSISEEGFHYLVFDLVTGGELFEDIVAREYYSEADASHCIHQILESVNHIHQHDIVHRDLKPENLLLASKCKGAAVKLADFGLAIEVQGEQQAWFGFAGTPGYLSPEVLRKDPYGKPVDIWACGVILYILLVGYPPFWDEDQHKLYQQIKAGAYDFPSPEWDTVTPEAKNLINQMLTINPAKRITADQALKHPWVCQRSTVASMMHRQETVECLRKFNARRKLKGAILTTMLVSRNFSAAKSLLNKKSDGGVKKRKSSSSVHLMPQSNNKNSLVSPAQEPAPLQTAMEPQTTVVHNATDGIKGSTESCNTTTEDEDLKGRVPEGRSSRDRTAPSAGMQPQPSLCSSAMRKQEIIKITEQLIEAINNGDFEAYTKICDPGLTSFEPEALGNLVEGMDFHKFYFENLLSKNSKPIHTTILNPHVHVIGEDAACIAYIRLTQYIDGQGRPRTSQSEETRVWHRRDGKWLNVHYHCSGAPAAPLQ
The target of test [8] is Tyrosine-protein kinase Lyn (Homo sapiens) (UniProt P07948). Kind of test: Inhibition of human full length LYN expressed in baculovirus assessed as substrate phosphorylation using fluorescence-labelled peptides as substrate at 9 uM after 90 mins by microfluidic peptide phosphorylation assay.
Tyrosine-protein kinase Lyn (Homo sapiens), sequence (P07948 2-512 limits assumed): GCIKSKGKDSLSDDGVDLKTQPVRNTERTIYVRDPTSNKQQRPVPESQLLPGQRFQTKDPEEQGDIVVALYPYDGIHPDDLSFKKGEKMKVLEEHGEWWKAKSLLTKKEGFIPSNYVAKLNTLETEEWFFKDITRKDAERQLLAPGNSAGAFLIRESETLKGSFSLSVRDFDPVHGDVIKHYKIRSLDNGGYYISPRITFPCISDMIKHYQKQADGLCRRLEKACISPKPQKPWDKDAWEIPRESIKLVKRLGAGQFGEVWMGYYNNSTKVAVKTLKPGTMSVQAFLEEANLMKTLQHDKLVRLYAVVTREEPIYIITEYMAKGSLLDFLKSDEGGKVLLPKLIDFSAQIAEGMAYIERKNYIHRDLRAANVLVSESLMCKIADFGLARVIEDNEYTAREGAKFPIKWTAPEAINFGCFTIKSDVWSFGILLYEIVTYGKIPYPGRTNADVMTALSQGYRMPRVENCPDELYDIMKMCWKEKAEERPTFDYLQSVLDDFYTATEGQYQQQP
In test [9] the target is T3, Serine/threonine-protein kinase Sgk2 (Homo sapiens) (UniProt Q9HBY8).
T3 sequence (whole entry): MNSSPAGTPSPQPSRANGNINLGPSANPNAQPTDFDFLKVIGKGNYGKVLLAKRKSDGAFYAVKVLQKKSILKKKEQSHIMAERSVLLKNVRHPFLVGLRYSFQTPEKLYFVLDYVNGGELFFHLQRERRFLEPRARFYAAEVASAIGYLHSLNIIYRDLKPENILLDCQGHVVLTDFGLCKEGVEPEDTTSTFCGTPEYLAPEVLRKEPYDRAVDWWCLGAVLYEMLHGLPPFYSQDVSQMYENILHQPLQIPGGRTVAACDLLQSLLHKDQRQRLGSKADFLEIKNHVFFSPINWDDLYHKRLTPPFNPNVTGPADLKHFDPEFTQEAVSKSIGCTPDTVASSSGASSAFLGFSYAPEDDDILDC
Kind of test: Inhibition of human full length SGK2 expressed in baculovirus assessed as substrate phosphorylation using fluorescence-labelled peptides as substrate at 70 uM after 90 mins by microfluidic peptide phosphorylation assay.

Test [10] concerns the target T4, Aurora kinase C (Homo sapiens) (UniProt Q9UQB9).
T4 sequence (whole entry): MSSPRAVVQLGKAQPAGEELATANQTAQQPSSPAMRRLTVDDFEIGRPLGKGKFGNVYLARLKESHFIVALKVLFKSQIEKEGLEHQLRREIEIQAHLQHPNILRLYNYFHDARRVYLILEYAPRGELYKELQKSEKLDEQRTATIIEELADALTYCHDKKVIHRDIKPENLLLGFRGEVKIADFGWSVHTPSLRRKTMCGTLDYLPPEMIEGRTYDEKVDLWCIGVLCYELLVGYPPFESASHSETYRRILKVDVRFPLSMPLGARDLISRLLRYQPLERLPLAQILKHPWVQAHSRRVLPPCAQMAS
The test can be described thus: Inhibition of human full length AurC expressed in baculovirus assessed as substrate phosphorylation using fluorescence-labelled peptides as substrate at 70 uM after 90 mins by microfluidic peptide phosphorylation assay.

Test [11] deals with RAC-alpha serine/threonine-protein kinase (Homo sapiens) (UniProt P31749). Kind of test: Inhibition of human AKT1 catalytic domain expressed in baculovirus assessed as substrate phosphorylation using fluorescence-labelled peptides as substrate at 2 uM after 90 mins by microfluidic peptide phosphorylation assay.
RAC-alpha serine/threonine-protein kinase (Homo sapiens), sequence (P31749 whole entry, the tested form may be a part): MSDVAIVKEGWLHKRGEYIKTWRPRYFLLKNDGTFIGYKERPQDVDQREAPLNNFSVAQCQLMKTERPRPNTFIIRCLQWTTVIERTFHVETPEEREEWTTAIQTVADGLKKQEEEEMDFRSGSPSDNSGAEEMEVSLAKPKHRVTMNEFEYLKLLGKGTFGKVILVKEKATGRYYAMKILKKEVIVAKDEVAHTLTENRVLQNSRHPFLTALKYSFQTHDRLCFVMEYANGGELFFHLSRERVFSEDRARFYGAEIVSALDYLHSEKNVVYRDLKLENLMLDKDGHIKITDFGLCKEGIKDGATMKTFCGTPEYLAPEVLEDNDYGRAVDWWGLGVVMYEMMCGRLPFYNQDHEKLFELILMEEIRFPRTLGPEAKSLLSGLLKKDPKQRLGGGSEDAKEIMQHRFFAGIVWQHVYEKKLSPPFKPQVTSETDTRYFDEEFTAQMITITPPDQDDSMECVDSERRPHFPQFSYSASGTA
Test [12] addresses Serine/threonine-protein kinase pim-1 (Homo sapiens) (UniProt P11309). The test can be described thus: Inhibition of human full length PIM1 expressed in baculovirus assessed as substrate phosphorylation using fluorescence-labelled peptides as substrate at 1000 uM after 90 mins by microfluidic peptide phosphorylation assay.

The inhibition is the relative decrease from the control value, in per cent.

Tyrosine-protein kinase BTK (Homo sapiens), sequence (Q06187 whole entry): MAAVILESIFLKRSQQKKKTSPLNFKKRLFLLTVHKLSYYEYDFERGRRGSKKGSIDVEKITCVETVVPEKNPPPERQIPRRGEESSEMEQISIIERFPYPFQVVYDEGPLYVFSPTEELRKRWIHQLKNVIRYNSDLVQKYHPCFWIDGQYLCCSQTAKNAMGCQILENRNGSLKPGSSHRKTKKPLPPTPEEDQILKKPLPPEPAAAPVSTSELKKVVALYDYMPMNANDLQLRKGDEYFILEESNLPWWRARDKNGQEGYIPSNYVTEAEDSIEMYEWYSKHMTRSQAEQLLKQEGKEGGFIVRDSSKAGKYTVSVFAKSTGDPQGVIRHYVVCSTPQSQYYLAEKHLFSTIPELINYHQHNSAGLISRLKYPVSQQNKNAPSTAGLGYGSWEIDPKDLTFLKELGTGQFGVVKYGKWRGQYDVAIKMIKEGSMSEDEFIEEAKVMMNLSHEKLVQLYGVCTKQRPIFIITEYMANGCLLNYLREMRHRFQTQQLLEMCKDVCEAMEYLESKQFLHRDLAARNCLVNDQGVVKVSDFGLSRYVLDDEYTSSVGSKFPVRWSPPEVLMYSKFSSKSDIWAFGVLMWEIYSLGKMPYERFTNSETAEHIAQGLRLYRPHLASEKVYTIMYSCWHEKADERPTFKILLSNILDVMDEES
Calcium/calmodulin-dependent protein kinase type II subunit delta (Homo sapiens), sequence (Q13557 whole entry): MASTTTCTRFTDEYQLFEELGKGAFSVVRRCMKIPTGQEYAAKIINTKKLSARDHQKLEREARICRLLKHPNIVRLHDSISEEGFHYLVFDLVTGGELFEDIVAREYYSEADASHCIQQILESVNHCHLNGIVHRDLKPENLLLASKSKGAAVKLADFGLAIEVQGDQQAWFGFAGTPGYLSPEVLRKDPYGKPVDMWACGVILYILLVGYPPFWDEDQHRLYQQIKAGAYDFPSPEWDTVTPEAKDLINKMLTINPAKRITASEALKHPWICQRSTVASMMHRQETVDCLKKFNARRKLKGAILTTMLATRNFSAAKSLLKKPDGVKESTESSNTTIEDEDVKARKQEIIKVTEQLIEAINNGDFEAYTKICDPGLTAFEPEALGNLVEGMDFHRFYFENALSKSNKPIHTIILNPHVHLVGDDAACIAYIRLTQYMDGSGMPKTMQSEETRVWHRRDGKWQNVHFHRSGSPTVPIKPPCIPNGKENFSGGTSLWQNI
Serine/threonine-protein kinase pim-1 (Homo sapiens), sequence (P11309 whole entry, looked up): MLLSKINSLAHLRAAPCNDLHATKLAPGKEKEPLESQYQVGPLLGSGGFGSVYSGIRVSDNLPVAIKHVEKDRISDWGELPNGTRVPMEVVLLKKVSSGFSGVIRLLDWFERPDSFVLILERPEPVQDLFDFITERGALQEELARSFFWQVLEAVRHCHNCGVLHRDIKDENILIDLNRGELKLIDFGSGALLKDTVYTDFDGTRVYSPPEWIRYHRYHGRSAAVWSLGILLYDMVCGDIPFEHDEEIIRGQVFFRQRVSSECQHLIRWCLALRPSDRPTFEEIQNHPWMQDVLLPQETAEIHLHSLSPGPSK

As for `NCC1CCN(c2ncnc3[nH]ccc23)CC1`, the inhibition in test [1] was found to be 4.5%.

Regarding `c1nc(N2CCOCC2)c2nc[nH]c2n1`, the inhibition in test [2] stood at 34%.

Take `C[C@H](CN(C)C)Oc1nc(Nc2cc3cccc(Cl)c3cn2)cnc1C#N`: in [3], the inhibition is 28.5%.

As to `NC1(Cc2ccc(Cl)cc2)CCN(c2ncnc3[nH]ccc23)CC1`, the inhibition in test [4] was 0%.

As to `Clc1ccc(C2(c3ccc(-c4ncnc5[nH]cnc45)cc3)CCNCC2)cc1`, the inhibition was found to be 24.5% in test [5] and 5% in test [6].

For `NCC1CN(c2ncnc3[nH]c4cnccc4c23)CCO1` (configuration not stated), the inhibition was 24% in [7] and 42% in test [8].

In the case of `CNCc1ccc(-c2ncnc3[nH]cnc23)cc1`, the inhibition was 74% in [9] and 73% in [10].

As for `NC1CCN(c2ncnc3[nH]ccc23)CC1`, in test [11], the inhibition turned out to be 83%.

For `c1cnc2[nH]ccc2c1`, the inhibition in test [12] is 20%.

The record behind these values is ChEMBL document CHEMBL3132769, “Fragment growing to retain or alter the selectivity of anchored kinase hinge-binding fragments” (Medchemcomm, 2014).
